# “And” between values parts separate entries of the source, which are not always exact repeats. Equal entries are not always repeated. Where two headings read alike, the source gives them in different places.
# Legend:
# [1] = Population pharmacokinetic analysis (NONMEM, one-compartment model) in hospitalized children; type: in vivo, human
# Excerpt: This was a retrospective PK study performed in two hospitals in China according to the principles of the current Declaration of Helsinki and Good Clinical Practice (Hospital 1: the First Affiliated Hospital of Xi’an Jiaotong University; Hospital 2: the Affiliated Children Hospital of Xi’an Jiaotong University). The protocol was approved by the institutional review board of each study site (No.XJTU1AF2017LSK-28). All patients aged 1 month to 18 years old receiving teicoplanin (Targocid, Sanofi-Aventis) for proven or suspected MRSA infection were selected for the study over 33-month period (March 2017 and November 2019). Children were excluded if a complete teicoplanin dosing history or precise sampling time was not available. The demographic variables with potential impact on the PK of teicoplanin and details of teicoplanin administration (dose and infusion start and stop times) were extracted from medical records retrospectively by a trained research assistant. If serum creatinine (SCr) readings were unavailable around the teicoplanin dosing (±48 h), the closest available SCr reading would be imputed. Creatinine clearance (CLcr) was estimated by Cockcroft formula: CLcr = (140 – age (years)) ×weight (WT, kg) × 0.85 (if female)/0.818 × SCr (μmol/L), instead of Schwartz formula due to the lack of height data in most children ([Cockcroft and Gault, 1976]).
# (§1) Teicoplanin was administered at three loading doses of 10 mg/kg every 12 h, followed by 6–10 mg/kg/day. Types of blood samples included therapeutic drug monitoring (TDM) sample, and opportunistic sample. TDM was typically performed within 30 min preceding a dose at steady state. Samples were centrifuged for 10 min. Serum was separated and stored at −80°C until analysis. The laboratory staff were allowed to identify the opportunistic samples with the timings of blood taking documented and store them at −80°C after routine testing and pretreatment. Teicoplanin concentrations were determined with a validated high performance liquid chromatography method. The calibration curve ranged from 2.5 to 100 mg/L, and lower limit of […] (LLOQ) of this assay was 2.5 mg/L. Intra- and inter-day precision values were 3.5 and 6.2%, respectively ([Wang et al., 2015]). For the samples below the LLOQ, concentration values were recorded as LLOQ of 2.5 mg/L.
# Population pharmacokinetic (PPK) analysis was performed using NONMEM (version 7.2). A one-compartment PK model with first-order elimination (ADVAN1 TRANS2) was implemented. The concentration-time data for teicoplanin were modeled by first-order conditional estimation with interaction (FOCE-I). We evaluated inter-individual variability using an exponential error model. Residual variability was selected from additive, proportional, exponential, and combined additive and proportional error models according to acceptable standard errors, physiological plausibility of population clearance (CL) and distribution volume (Vd) estimates, improvement of the objective function value (OFV) and good visual representation of standard diagnostic plots. Demographic characteristics (age, gender, WT), renal functions (blood urea nitrogen, SCr, CLcr), biochemical data (total protein, albumin), status of disease (sepsis, endocarditis), and nephrotoxic medications received during teicoplanin therapy were investigated as potential variables on PK parameters. CLcr was calculated by the Cockcroft formula ([Cockcroft and Gault, 1976]). […]
# [2] = Serum teicoplanin concentrations (TDM and opportunistic samples, HPLC); type: in vivo, human; details: SD
# Experimental: as §1
# [3] = Nephrotoxicity and adverse events in patients; type: in vivo, human; details: all after the last sample was collected
# [4] = cited from earlier work
# Excerpt: Supplement table1.docx, table 1: TABLE S1 Pharmacokinetic Study of teicoplanin in pediatric patients. | column: Clearance (CL) , L/h; Volume of distribution (Vd) , L || Teicoplanin is a glycopeptide antibiotic with activity against methicillin-resistant Staphylococcus aureus (MRSA) ([Traina and Bonati, 1984]). […] Teicoplanin trough concentration (C min) is closely associated with clinical efficacy. […] Due to widespread systemic inflammation, patients may often have an ARC in PICU patients ([Van Der Heggen et al., 2019]), and increased volume ... || (+ 2 further places)
# [5] = cited from earlier work; remark: listed apart in the source
# Excerpt: Teicoplanin is a glycopeptide antibiotic with activity against methicillin-resistant Staphylococcus aureus (MRSA) ([Traina and Bonati, 1984]). […] Teicoplanin trough concentration (C min) is closely associated with clinical efficacy. For the moderate (such as respiratory tract infections, urinary tract infections and skin and soft-tissue infections) and severe infection (such as sepsis, infective endocarditis, bone an ... || There are large differences in the optimal dosage regimens provided by the two methods (Table 3). Taken together, optimal dosage regimens based on the C min targets in our study are recommended, which are three loading doses of 10 mg/kg every 12 h, followed by a maintenance dose of 12 mg/kg/day for C min of > 10 mg/L and three loading doses of 13 mg/kg every 12 h, followed by a maintenance dose of 16 mg/kg/day for C min of > 15 mg/L. The reasons are as follows: 1) The maintenance dose based on the C min targets are higher than that based PK/PD targets. In other words, maintenance dose based on ...
# [6] = ref Lukas et al., 2004; cited from earlier work
# Excerpt: (§2) Teicoplanin is a glycopeptide antibiotic with activity against methicillin-resistant Staphylococcus aureus (MRSA) ([Traina and Bonati, 1984]). […] Teicoplanin trough concentration (C min) is closely associated with clinical efficacy. For the moderate (such as respiratory tract infections, urinary tract infections and skin and soft-tissue infections) and severe infection (such as sepsis, infective endocarditis, bone an ...
# [7] = test system: albumin; details: ref Lukas et al., 2004; cited from earlier work
# Excerpt: as §2
# [8] = ref Svetitsky et al., 2009; cited from earlier work
# Experimental: There are large differences in the optimal dosage regimens provided by the two methods (Table 3). Taken together, optimal dosage regimens based on the C min targets in our study are recommended, which are three loading doses of 10 mg/kg every 12 h, followed by a maintenance dose of 12 mg/kg/day for C min of > 10 mg/L and three loading doses of 13 mg/kg every 12 h, followed by a maintenance dose of 16 mg/kg/day for C min of > 15 mg/L. The reasons are as follows: 1) The maintenance dose based on the C min targets are higher than that based PK/PD targets. In other words, maintenance dose based on ...
# [9] = most recent study in Chinese children, ref Gao et al., 2020
substance,measurement,setting,value
Teicoplanin,"Vd, mean of 1,000 bootstrap replicates",[1]; bootstrap,1.77 L
same,"CL, mean of 1,000 bootstrap replicates",[1]; bootstrap success rate 96.5%,0.0718 L/h
same,"Vd, final model estimate","[1]; population PK, one-compartment, Vd=1.39×θ3(WT/16.71)",1.39 L
same,Estimate of Vd per kg,[1]; this study,0.15 L/kg
same,Typical population value of CL per kg,[1]; this study,0.233 mL/min/kg
same,"Teicoplanin concentration, mean ± standard deviation","[2]; Hospital 1, n=13, 21 samplings",9.3 ± 10.1 mg/L
same,"Teicoplanin concentration, mean ± standard deviation","[2]; Hospital 2, n=212, 304 samplings",9.1 ± 8.9 mg/L
same,"Teicoplanin concentration, mean ± standard deviation","[2]; model evaluation data, n = 66, 89 samplings",9.6 ± 5.6 mg/L
same,"Teicoplanin concentration, mean ± standard deviation","[2]; model-building data, n = 159, 236 samplings, HPLC, LLOQ 2.5 mg/L",8.6 ± 12.1 mg/L
same,Children who developed nephrotoxicity during hospitalization,[3],Nine
same,Mean C min,"[4]; 24 h after the first dose, ref Sanchez et al., 1999",4800 ng/mL
same,Mean C min,"[4]; 72 h after the first dose, ref Sanchez et al., 1999",5700 ng/mL
same,Mean C min,"[4]; 168 h after the first dose, ref Sanchez et al., 1999",5900 ng/mL
same,CL,"[4]; PICU Caucasians, ref Aarons et al., 1998, Lukas et al., 2004, Ramos-Martin et al., 2014, Reed et al., 1997, Sanchez et al., 1999, Terragna et al., 1988, Zhao et al., 2015",0.5 to 1.23 mL/min/kg
same,Volume of distribution (Vd),"[4]; children, n=39, England, FPIA, ref Ramos-Martin (2014)",4.138 L
same,Q,"[4]; children, n=136, China, population PK, ref Gao (2020)",0.23 L/h
same,Vd in other studies,"[4]; children, ref Supplementary Table S1",0.2 to 1.02 L/kg
same,CL estimate,[4]; [9],0.217 mL/min/kg
same,Vd,[4]; [9],1.85 L/kg
same,CL,"[4]; non-PICU Caucasians, ref Aarons et al., 1998, Lukas et al., 2004, Ramos-Martin et al., 2014, Reed et al., 1997, Sanchez et al., 1999, Terragna et al., 1988, Zhao et al., 2015",0.25 to 0.4 mL/min/kg
same,Proportion of children failing to achieve the target C min,"[4]; previous clinical studies, ref Sanchez et al., 1999, Strenger et al., 2013, Zhao et al., 2015",48–89%
same,CL in children,"[4]; ref Aarons et al., 1998, Lukas et al., 2004, Ramos-Martin et al., 2014, Reed et al., 1997, Sanchez et al., 1999, Terragna et al., 1988, Zhao et al., 2015",0.25 to 1.23 mL/min/kg
same,Overall mean C min,"[4]; ref Lukas et al., 2004",9000 ng/mL
same,Vd,"[4]; ref Ramos-Martin et al., 2014",0.2 L/kg
same,C min achieved with current maintenance doses in another study,"[4]; ref Sanchez et al., 1999",4800 to 5900 ng/mL
same,CL,"[4]; two studies in patients admitted to the PICU, ref Reed et al., 1997, Sanchez et al., 1999",0.75 mL/min/kg and 0.5 mL/min/kg
same,Elimination half-life compared with vancomycin,"[5]; ref Kasai et al., 2018",longer elimination half-life than vancomycin
same,Linearity of PK,"[5]; ref Rowland, 1990",linear PK
same,CL in adults,"[5]; seven out of ten of the CL reported, ref Byrne et al., 2018, Cazaubon et al., 2017, Kasai et al., Lamont et al., 2005, Soy et al., 2006, Yamada et al., 2012, Yu et al., 1995",lower than 0.01 L/h/kg
same,Hydrophilicity of the marketed drug,[6],hydrophilic
same,Bound to albumin in plasma,[7],> 90%
same,Adverse events compared with vancomycin,[8],lower adverse event compared with vancomycin

# — article PMC7753357, “Population Pharmacokinetics and Model-Based Dosing Optimization of Teicoplanin in Pediatric Patients” (Frontiers in Pharmacology, 2020)
